Tests used:
[1] = Concentration at which Reactive Diluent 3 acts as a photoinhibitor (absorption vs concentration, inflection point); type: physicochemical
Protocol: (§1) Referring also to FIG. 3, there is shown a series of graphs illustrating the absorption behaviour of the resin components in spectroscopy grade acetone, diluted from 1 M stock solutions down to 10 μM using serial dilutions. Absorption behaviour was examined from 200 nm to 800 nm, at 1 nm increments, with absorption maxima quantified at 365, 405, 455, and 500 nm, as indicated in the box in each graph.
This was used to determine the concentration at which Reactive Diluent 3 would act as a photoinhibitor for wavelengths of interest. At 365 nm, the inflection point of the logarithmic plot of the linear fit was located at ca 0.015M; 405 nm inflection point was located at 0.0131M; 450 nm inflection point was found at 0.099M; 500 nm inflection point was located at 0.1312M.

[2] = UV-vis absorption spectrum in acetone; type: physicochemical
Protocol: Referring now to FIG. 1B, there is shown a synthetic pathway to Reactive Diluent 1, 2, and 3. […] Reactive diluents of the invention are non-white coloured.
The spectra 2a and 2b of Reactive Diluent 3 were recorded in spectroscopy grade acetone, diluted from 1M stock solutions down to 10 μM using serial dilutions. Absorption behaviour was examined from 200 nm to 800 nm, at 1 nm increments, using a ThermoFisher 350 UV-vis spectrophotometer (ThermoFisher Scientific, UK). Absorption maxima at 365, 405, 455, and 500 nm were recorded for comparison.
as §1

Compound	concentration needed in a resin composition to function as a photoinhibitor [1]	inflection point of the logarithmic plot of the linear fit ([1]; 365 nm, acetone)	inflection point ([1]; 405 nm, acetone)	inflection point ([1]; 450 nm, acetone)	inflection point ([1]; 500 nm, acetone)	absorption maximum (λmax) [2]
C=CCN1C(=O)CC(=O)N(CC2(C)CC(N3C(=O)CC(=O)N(CC=C)C3=O)CC(C)(C)C2)C1=O (centres unmarked) [Reactive Diluent 3]	at least 0.015 M	~0.015 M	0.0131 M	0.099 M	0.1312 M	ca. 450 nm
C=CCOC(=O)NCC1(C)CC(NC(=O)OCC=C)CC(C)(C)C1 (centres unmarked) [Reactive Diluent 1]						do not exhibit an absorption maximum (λmax) of between 350 and 520 nm
C=CCNC(=O)NCC1(C)CC(NC(=O)NCC=C)CC(C)(C)C1 (centres unmarked) [Reactive Diluent 2]						do not exhibit an absorption maximum (λmax) of between 350 and 520 nm

Reference: US20240101749A1, “RESIN COMPOSITION” (4D MEDICINE LIMITED, priority 2021, published 2024)
